From article doi:10.1101/2024.03.13.583470v1, “SARS-CoV-2 methyltransferase nsp10-16 in complex with natural and drug-like purine analogs for guiding structure-based drug discovery” (biorxiv, 2024)

Assays:
[1] = target: T1, nsp10-16 (Severe acute respiratory syndrome coronavirus 2, UniProt P0DTD1); experiment: X-ray crystallography, soaking; assay type: binding; conditions: SAM site, fully replaces SAM; 10 mM soak, pH 6.5
T1 construct: gene rep

[2] = target: T1, nsp10-16; experiment: ITC or other biophysical method (nanoDSF, MST), not given; assay type: binding

SMILES | X-ray crystallography, soaking [1] | KD [2]
Nc1ncnc2c1ncn2[C@@H]1O[C@H](CO)[C@@H](O)[C@H]1O [adenosine] | electron density is observed in the adenosine cavity while SAM is fully replaced | 
C[S+](CC[C@H](N)C(=O)O)C[C@H]1O[C@@H](n2cnc3c(N)ncnc32)[C@H](O)[C@@H]1O (some centres unmarked) [S-adenosyl methionine] |  | measurable binding of the tested ligands within the investigated ligand concentrations applied, except for
